Experiments:
Acetylcholinesterase = Acetylcholinesterase (Electrophorus electricus, UniProt O42275); experiment: Inhibition of electric eel AChE by Ellman's method
Mu-type opioid receptor = Mu-type opioid receptor (Rattus norvegicus, UniProt P33535); experiment: Displacement of [3H]DAMGO from mu opioid receptor in rat brain membrane; type: cell membranes
[1] = biological target: Delta-type opioid receptor (Rattus norvegicus, UniProt P33533); experiment: Displacement of [3H][Ile5,6]deltorphin2 from delta opioid receptor in rat brain membrane; type: cell membranes
[2] = biological target: Kappa-type opioid receptor (Cavia porcellus, UniProt P41144); experiment: Displacement of [3H]U69593 from kappa opioid receptor in guinea pig brain membrane; type: cell membranes
Sequence of Kappa-type opioid receptor (P41144 whole entry): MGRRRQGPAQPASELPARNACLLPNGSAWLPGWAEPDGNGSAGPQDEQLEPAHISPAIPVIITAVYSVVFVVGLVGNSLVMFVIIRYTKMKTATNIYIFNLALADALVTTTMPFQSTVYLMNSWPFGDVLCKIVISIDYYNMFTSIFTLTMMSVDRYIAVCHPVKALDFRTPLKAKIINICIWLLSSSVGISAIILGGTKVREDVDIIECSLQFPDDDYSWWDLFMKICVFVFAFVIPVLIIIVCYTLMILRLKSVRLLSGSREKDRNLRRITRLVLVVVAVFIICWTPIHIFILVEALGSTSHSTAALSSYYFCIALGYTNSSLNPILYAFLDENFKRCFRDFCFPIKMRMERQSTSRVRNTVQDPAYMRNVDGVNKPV

Sequence of Mu-type opioid receptor (P33535 whole entry): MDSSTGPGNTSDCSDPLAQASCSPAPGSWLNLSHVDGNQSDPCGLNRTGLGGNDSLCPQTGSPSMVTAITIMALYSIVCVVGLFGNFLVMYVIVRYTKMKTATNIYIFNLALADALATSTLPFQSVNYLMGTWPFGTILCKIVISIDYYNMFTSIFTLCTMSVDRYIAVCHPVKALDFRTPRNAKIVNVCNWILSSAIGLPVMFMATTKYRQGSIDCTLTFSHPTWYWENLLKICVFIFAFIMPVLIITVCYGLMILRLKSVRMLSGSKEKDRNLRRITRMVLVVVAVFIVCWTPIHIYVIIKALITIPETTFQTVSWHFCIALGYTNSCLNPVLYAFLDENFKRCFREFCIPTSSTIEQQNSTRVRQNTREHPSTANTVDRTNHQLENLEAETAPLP
Sequence of Acetylcholinesterase (O42275 whole entry): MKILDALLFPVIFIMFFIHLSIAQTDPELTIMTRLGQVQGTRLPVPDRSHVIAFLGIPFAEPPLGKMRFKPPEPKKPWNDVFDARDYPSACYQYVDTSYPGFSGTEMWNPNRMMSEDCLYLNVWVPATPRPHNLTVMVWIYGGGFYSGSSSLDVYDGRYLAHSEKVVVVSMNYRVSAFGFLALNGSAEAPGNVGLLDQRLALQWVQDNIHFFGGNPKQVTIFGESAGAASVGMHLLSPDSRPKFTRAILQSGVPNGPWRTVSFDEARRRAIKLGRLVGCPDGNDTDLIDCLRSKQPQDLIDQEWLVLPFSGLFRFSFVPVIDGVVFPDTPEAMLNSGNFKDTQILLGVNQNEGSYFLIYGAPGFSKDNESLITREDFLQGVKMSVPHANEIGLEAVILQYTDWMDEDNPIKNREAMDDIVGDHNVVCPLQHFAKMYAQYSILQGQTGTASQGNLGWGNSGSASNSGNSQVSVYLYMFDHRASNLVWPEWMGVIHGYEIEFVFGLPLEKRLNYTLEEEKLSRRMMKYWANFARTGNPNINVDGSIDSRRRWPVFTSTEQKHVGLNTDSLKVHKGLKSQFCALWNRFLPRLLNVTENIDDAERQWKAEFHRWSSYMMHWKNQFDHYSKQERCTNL
Sequence of Delta-type opioid receptor (P33533 whole entry): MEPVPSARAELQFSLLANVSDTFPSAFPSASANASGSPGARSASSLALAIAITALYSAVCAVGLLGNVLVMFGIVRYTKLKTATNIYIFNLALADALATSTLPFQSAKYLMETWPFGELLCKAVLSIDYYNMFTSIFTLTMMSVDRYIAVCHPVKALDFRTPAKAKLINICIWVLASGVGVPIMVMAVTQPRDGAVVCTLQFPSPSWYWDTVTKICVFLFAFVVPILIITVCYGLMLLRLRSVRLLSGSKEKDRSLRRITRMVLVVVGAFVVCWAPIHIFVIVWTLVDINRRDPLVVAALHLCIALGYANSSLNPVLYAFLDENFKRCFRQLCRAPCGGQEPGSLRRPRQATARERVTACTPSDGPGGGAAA

Q: How did the IC50 (Acetylcholinesterase) turn out when `COC1CCC2C(Cc3cccc(O)c3)=NCCC2C1` (stereo unspecified) was run?
A: 43100 nM

Q: And the Ki (Mu-type opioid receptor)?
A: 2320 nM

Q: And the Ki [1]?
A: > 10000 nM

Q: And the Ki [2]?
A: > 10000 nM

Q: Which results are given for `COC1=CCC2=C(CCNC2Cc2ccccc2O)C1` (stereo unspecified)?
A: IC50 (Acetylcholinesterase): 138000 nM; Ki (Mu-type opioid receptor): > 10000 nM; Ki [1]: > 10000 nM; Ki [2]: > 10000 nM

Q: Which results are given for `C=CCN1CC[C@]23CC(=O)CC[C@H]2[C@H]1Cc1cccc(OC)c13`?
A: Ki (Mu-type opioid receptor): 6.55 nM; Ki [1]: 217 nM; Ki [2]: 113 nM

Q: Which results are given for `CCO[C@@]12CCC(=O)C[C@@]13CCN(C)[C@@H]2Cc1cccc(O)c13`?
A: IC50 (Acetylcholinesterase): 37100 nM; Ki (Mu-type opioid receptor): 20.2 nM; Ki [1]: 316 nM; Ki [2]: 33.1 nM

Q: How did the Ki (Mu-type opioid receptor) turn out when `O=CN1CC[C@]23CC(=O)CC[C@H]2[C@H]1Cc1c(O)ccc(O)c13` was run?
A: 67.2 nM

Q: What about the Ki [1] of the same molecule?
A: 1250 nM

Q: What about the Ki [2] of the same molecule?
A: 328 nM

Q: What does the source list for `O=CN1CC[C@]23CC(=O)CC[C@H]2[C@H]1CC1C(=O)C=CC(=O)C13` (stereo partly specified)?
A: IC50 (Acetylcholinesterase): 12700 nM; Ki (Mu-type opioid receptor): 0.46 nM; Ki [1]: 12.2 nM; Ki [2]: 43.2 nM

Q: Which IC50 (Acetylcholinesterase) does the source give for `COc1cccc(CC2=NCCc3cc(OC)ccc32)c1` here?
A: 42900 nM

Q: For `C=CCN1CC[C@]23CC(=O)CC[C@H]2[C@H]1Cc1cccc(OC(C)=O)c13`, which IC50 (Acetylcholinesterase) is on record?
A: 193000 nM

Q: With `O=CN1CC[C@]23c4c5cccc4O[C@H]2C(=O)CC[C@H]3[C@H]1C5` as the molecule, how does the IC50 (Acetylcholinesterase) read?
A: 60300 nM

Q: And the Ki (Mu-type opioid receptor)?
A: > 10000 nM

Q: And the Ki [1]?
A: > 10000 nM

Q: What about the Ki [2] of the same molecule?
A: > 10000 nM

Q: For `CCCCCCOc1cccc2c1[C@]13CCN(CC4CC4)[C@H](C2)[C@]1(OC)C=CC(=O)C3`, which IC50 (Acetylcholinesterase) is on record?
A: 405000 nM

Q: Which results are given for `CCO[C@@]12CCC(=O)[C@]3(C)Oc4c(O)ccc5c4[C@@]31CCN(C)[C@@H]2C5`?
A: Ki (Mu-type opioid receptor): 0.1 nM; Ki [1]: 4.8 nM; Ki [2]: 10.2 nM

Q: What does the source list for `COc1cccc2c1[C@]13CCN(C)[C@H](C2)[C@]1(OC)CCC(=O)C3`?
A: IC50 (Acetylcholinesterase): 46200 nM; Ki (Mu-type opioid receptor): 1.15 nM; Ki [1]: 101 nM; Ki [2]: 403 nM

Q: For `CO[C@@]12CCC(=O)[C@@H]3Oc4cccc5c4[C@@]31CCN(C)[C@@H]2C5`, which IC50 (Acetylcholinesterase) is on record?
A: 140000 nM

Q: For `CN1CC[C@]23c4c5cccc4O[C@H]2C(=O)CC[C@@]3(O)[C@H]1C5`, which IC50 (Acetylcholinesterase) is on record?
A: 65300 nM

Q: What does the source list for `C=CCN1CC[C@]23CC(=O)CC[C@@]2(OC)[C@H]1Cc1cccc(OC)c13`?
A: Ki (Mu-type opioid receptor): 2 nM; Ki [1]: 210 nM; Ki [2]: 567 nM

Q: How did the Ki (Acetylcholinesterase) turn out when `C=CCN1CC[C@@]23CCCC[C@@H]2[C@@H]1Cc1ccc(O)cc13` [DEXTALLORPHAN] was run?
A: 20000 nM

Q: `CN1CC[C@@]23CCCC[C@@H]2[C@@H]1Cc1ccc(O)cc13` [DEXTRORPHAN] was tested. Which Ki (Acetylcholinesterase) did it give?
A: 20000 nM

Q: `C=CCN1CC[C@]23CCCC[C@H]2[C@H]1Cc1ccc(O)cc13` [LEVALLORPHAN] was tested. Which Ki (Acetylcholinesterase) did it give?
A: 12000 nM

Q: For `CN1CC[C@]23CCCC[C@H]2[C@H]1Cc1ccc(O)cc13` [LEVORPHANOL], which Ki (Acetylcholinesterase) is on record?
A: 25000 nM

Q: Which IC50 (Acetylcholinesterase) does the source give for `COc1ccc2c3c1O[C@H]1C(=O)CC[C@@]4(O)[C@@H](C2)N(C)CC[C@]314` [OXYCODONE] here?
A: 76200 nM
